Literature values in US8629128B2, “Vitamin formulation” (priority 2005, dated 2014).

Legend:
[1] = tested on: normal and malignant keratinocytes; conditions: normal and malignant keratinocytes in culture
[2] = oxidizing agents and sunlight

## C=C1/C(=C\C=C2/CCC[C@]3(C)C([C@H](C)/C=C/[C@@H](O)C4CC4)CC[C@@H]23)C[C@@H](O)C[C@@H]1O (stereo partly drawn) [Calcipotriene, (5Z,7E,22E,24S)-24-cyclopropyl-9,10-secochola-5,7,10(19), 22 tetraene-1α,3β,24-triol]
[1]
  induction of differentiation of keratinocytes: induces the differentiation
  inhibition of proliferation of keratinocytes: inhibits proliferation

## CC1=C(/C=C/C(C)=C/C=C/C(C)=C/C(=O)O)C(C)(C)CCC1 [Tretinoin, (all-E)-3,7-dimethyl-9-(2,6,6-trimethyl-1-cyclohexen-1-yl)-2,4,6,8-nonatetraenoic acid]
[2]
  stability of tretinoin: unstable in the presence of oxidizing agents and sunlight

## C=C1/C(=C\C=C2/CCC[C@]3(C)[C@@H]([C@H](C)CCCC(C)(C)O)CC[C@@H]23)C[C@@H](O)C[C@@H]1O [calcitriol, 1,25-dihydroxy Vitamin D3]
Calcium metabolism
  effect on calcium metabolism: potent effect on calcium metabolism
